Source: ChEMBL document CHEMBL1124077, “Photoaffinity labeling adenosine A1 receptors with an antagonist 125I-labeled aryl azide derivative of 8-phenylxanthine” (J Med Chem, 1988)

What was measured:
[1] = molecular target: T1, Adenosine receptor A1 (Rattus norvegicus) (UniProt P25099); experiment: Bmax value against A1 receptor
T1 sequence (whole entry): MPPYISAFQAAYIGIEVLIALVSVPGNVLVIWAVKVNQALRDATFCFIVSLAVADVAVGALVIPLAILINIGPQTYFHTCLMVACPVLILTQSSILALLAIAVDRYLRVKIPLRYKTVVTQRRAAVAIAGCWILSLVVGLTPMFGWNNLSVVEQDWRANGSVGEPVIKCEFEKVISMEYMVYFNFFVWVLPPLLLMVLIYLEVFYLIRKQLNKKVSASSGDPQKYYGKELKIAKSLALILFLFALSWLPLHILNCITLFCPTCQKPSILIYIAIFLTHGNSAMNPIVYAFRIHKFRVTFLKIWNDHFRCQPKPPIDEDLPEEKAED

[2] = molecular target: T2, Adenosine receptor A1 (Rattus norvegicus, UniProt P25099); experiment: Binding affinity towards adenosine A1 receptor in rat brain membrane(KD); assay type: tissue-based
T2 sequence (P25099 whole entry): T1 sequence (whole entry)

[3] = molecular target: T2, Adenosine receptor A1; experiment: Inhibition of photolabeling of 34 kDa polypeptide in adenosine A1 receptor

| Compound | Bmax [1] [fmol/mg] | Kd [2] [nM] | IC50 [3] [nM] |
| --- | --- | --- | --- |
| CCCn1c(=O)c2nc(-c3ccc(OCC(=O)O)cc3)[nH]c2n(CCc2ccc(N)c(I)c2)c1=O | 485 | 0.8 | – |
| CCCn1c(=O)c2nc(-c3ccc(OCC(=O)O)cc3)[nH]c2n(CCc2ccc(N)cc2)c1=O | – | – | 16 |
| CCCn1c(=O)c2nc(-c3ccc(OCC(=O)O)cc3)[nH]c2n(CCc2ccc(N=[N+]=[N-])c(I)c2)c1=O | – | 1.2 | – |
| CCCn1c(=O)c2nc(-c3ccc(OCC(=O)O)cc3)[nH]c2n(Cc2ccc(N)c(I)c2)c1=O | 485 | 0.8 | – |
